Results taken from patent publication US9833497B2, “Human originated EGF domain proteins and use of the same” (CHENGDU SOURCEBIO LIMITED-LIABILITY COMPANY, priority 2013, dated 2017).

How the values were obtained:
Type in all cases: cell-based
Citrobacter diversus = test: MIC against Gram-negative bacteria: Citrobacter diversus; conditions: 5×10^5 CFU/mL
Outline: (§1)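 Purified recombinant human EGF domain proteins are tested by broth dilution in LB against a 5×10^5 CFU/mL inoculum, with two-fold serial dilutions run in triplicate. Plates are incubated at 37° C with shaking, and the MIC is read as the lowest protein concentration without growth.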

Klebsiella pneumonia = test: MIC against Gram-negative bacteria: Klebsiella pneumonia; conditions: 5×10^5 CFU/mL
Outline: as §1

Enterobacter cloacae = test: MIC against Gram-negative bacteria: Enterobacter cloacae; conditions: 5×10^5 CFU/mL
Outline: as §1

Aeromonas hydrophila = test: MIC against Gram-negative bacteria: Aeromonas hydrophila; conditions: 5×10^5 CFU/mL
Outline: as §1

Proteus mirabilis = test: MIC against Gram-negative bacteria: Proteus mirabilis; conditions: 5×10^5 CFU/mL
Outline: as §1

Serratia marcescens = test: MIC against Gram-negative bacteria: Serratia marcescens; conditions: 5×10^5 CFU/mL
Outline: as §1

Proteus vulgaris = test: MIC against Gram-negative bacteria: Proteus vulgaris; conditions: 5×10^5 CFU/mL
Outline: as §1

E. coli BL21 = test: MIC against Gram-negative bacteria: E. coli BL21; conditions: 5×10^5 CFU/mL
Outline: as §1

Moraxella catarrhalis = test: MIC against Gram-negative bacteria: Moraxella catarrhalis; conditions: 5×10^5 CFU/mL
Outline: as §1

E. coli DH5α = test: Antibacterial activity: MIC and growth curve against E. coli DH5α in 96-well plate; conditions: minimal inhibitory concentration against E. coli DH5α; 96-well plate, 5×10^5 CFU/mL, 37° C., judged after 8 h
Outline: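 Log-phase DH5α (OD600 about 0.5, 37° C, 185 rpm in LB) was pelleted, resuspended in fresh LB and seeded at 5×10^5 CFU/mL with recombinant protein at 50, 25 and 12.5 μg/mL (two-fold series), in triplicate. Plates were shaken at 175 rpm, 37° C, and OD600 was read every 30 min. MIC was the lowest concentration with no growth.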

Pseudomonas aeruginosa = test: MIC against Gram-negative bacteria: Pseudomonas aeruginosa; conditions: 5×10^5 CFU/mL
Outline: as §1

[1] = 10 h cultivation at 37° C., two-fold serial dilution

Substance | MIC (E. coli DH5α) | MIC C. diversus (Citrobacter diversus; 96-well plate, 37° C., 10 h) | MIC K. pneumonia (Klebsiella pneumonia; 96-well plate, 37° C., 10 h) | MIC E. cloacae (Enterobacter cloacae; 96-well plate, 37° C., 10 h) | MIC A. hydrophila (Aeromonas hydrophila; 96-well plate, 37° C., 10 h) | MIC P. mirabilis (Proteus mirabilis; 96-well plate, 37° C., 10 h) | MIC S. marcescens (Serratia marcescens; 96-well plate, 37° C., 10 h) | MIC P. vulgaris (Proteus vulgaris; 96-well plate, 37° C., 10 h) | MIC E. coli BL21 (E. coli BL21; 96-well plate, 37° C., 10 h) | MIC M. catarrhalis (Moraxella catarrhalis; 96-well plate, 37° C., 10 h) | MIC P. aeruginosa (Pseudomonas aeruginosa; 96-well plate, 37° C., 10 h) | MIC C. diversus (Citrobacter diversus; [1]) | MIC K. pneumonia (Klebsiella pneumonia; [1]) | MIC E. cloacae (Enterobacter cloacae; [1]) | MIC A. hydrophila (Aeromonas hydrophila; [1]) | MIC P. mirabilis (Proteus mirabilis; [1]) | MIC S. marcescens (Serratia marcescens; [1]) | MIC P. vulgaris (Proteus vulgaris; [1]) | MIC E. coli BL21 (E. coli BL21; [1]) | MIC M. catarrhalis (Moraxella catarrhalis; [1]) | also measured
PRT466 (RHTACLSSPCLNGGTCHLIVATGTTVCACPPGFAGRLCN; listed as Homo sapiens) | 12.5 µg/mL | – | – | – | – | – | – | – | – | – | – | – | – | – | – | – | – | – | – | – | MIC against C. diversus (Citrobacter diversus; 96-well plate, 37° C., 10 h): 12.5 µg/mL; MIC against K. pneumonia (Klebsiella pneumonia; 96-well plate, 37° C., 10 h): 50 µg/mL; MIC against E. cloacae (Enterobacter cloacae; 96-well plate, 37° C., 10 h): 12.5 µg/mL; MIC against A. hydrophila (Aeromonas hydrophila; 96-well plate, 37° C., 10 h): 50 µg/mL; MIC against P. mirabilis (Proteus mirabilis; 96-well plate, 37° C., 10 h): 12.5 µg/mL; MIC against S. marcescens (Serratia marcescens; 96-well plate, 37° C., 10 h): 12.5 µg/mL; MIC against P. vulgaris (Proteus vulgaris; 96-well plate, 37° C., 10 h): 50 µg/mL; MIC against E. coli BL21 (E. coli BL21; 96-well plate, 37° C., 10 h): 50 µg/mL; MIC against M. catarrhalis (Moraxella catarrhalis; 96-well plate, 37° C., 10 h): 50 µg/mL; MIC against P. aeruginosa (Pseudomonas aeruginosa; 96-well plate, 37° C., 10 h): 12.5 µg/mL
PRT703 (NCSRLGCQHHCVPTLDGPTCYCNSSFQLQADGKTCK; listed as Homo sapiens) | 25 µg/mL | 12.5 µg/mL | 25 µg/mL | 50 µg/mL | 25 µg/mL | 25 µg/mL | 50 µg/mL | 12.5 µg/mL | 50 µg/mL | 50 µg/mL | 12.5 µg/mL | – | – | – | – | – | – | – | – | – | –
PRT1163 (SVNSCAVNPCLHNGECVADNTSRGYHCRCPPSWQGDDCS; listed as Homo sapiens) | 12.5 µg/mL | – | – | – | – | – | – | – | – | – | – | 12.5 µg/mL | 25 µg/mL | 12.5 µg/mL | 12.5 µg/mL | 12.5 µg/mL | 25 µg/mL | 12.5 µg/mL | 25 µg/mL | 12.5 µg/mL | MIC P. aeruginosa (Pseudomonas aeruginosa; [1]): 12.5 µg/mL
PRT1117 (EVDECASAPCLHGGSCLDGVGSFRCVCAPGYGGTRCQ; listed as Homo sapiens) | 50 µg/mL | – | – | – | – | – | – | – | – | – | – | 25 µg/mL | 12.5 µg/mL | 50 µg/mL | 12.5 µg/mL | 25 µg/mL | 25 µg/mL | 12.5 µg/mL | 12.5 µg/mL | 12.5 µg/mL | MIC P. aeruginosa (Pseudomonas aeruginosa; [1]): 50 µg/mL
PRT871 (CYCNPLGSIHDRCNGSGFCECKTGTTGPKCDECLPGNSWHYGCQPNVCDN; listed as Homo sapiens) | 12.5 µg/mL | – | – | – | – | – | – | – | – | – | – | – | – | – | – | – | – | – | – | – | MIC (μg/mL) C. diversus (Citrobacter diversus; C. diversus, 10 h cultivation at 37° C.): 12.5 µg/mL; MIC (μg/mL) K. pneumonia (Klebsiella pneumonia; K. pneumonia, 10 h cultivation at 37° C.): 12.5 µg/mL; MIC (μg/mL) E. cloacae (Enterobacter cloacae; E. cloacae, 10 h cultivation at 37° C.): 12.5 µg/mL; MIC (μg/mL) A. hydrophila (Aeromonas hydrophila; A. hydrophila, 10 h cultivation at 37° C.): 12.5 µg/mL; MIC (μg/mL) P. mirabilis (Proteus mirabilis; P. mirabilis, 10 h cultivation at 37° C.): 12.5 µg/mL; MIC (μg/mL) S. marcescens (Serratia marcescens; S. marcescens, 10 h cultivation at 37° C.): 12.5 µg/mL; MIC (μg/mL) P. vulgaris (Proteus vulgaris; P. vulgaris, 10 h cultivation at 37° C.): 50 µg/mL; MIC (μg/mL) E. coli BL21 (E. coli BL21; E. coli BL21, 10 h cultivation at 37° C.): 25 µg/mL; MIC (μg/mL) M. catarrhalis (Moraxella catarrhalis; M. catarrhalis, 10 h cultivation at 37° C.): 25 µg/mL; MIC (μg/mL) P. aeruginosa (Pseudomonas aeruginosa; P. aeruginosa, 10 h cultivation at 37° C.): 50 µg/mL
PRT648 (DIDECLNPSTCPDEQCVNSPGSYQCVPCTEGFRGWNGQCL; listed as Homo sapiens) | 12.5 µg/mL | 12.5 µg/mL | 25 µg/mL | 12.5 µg/mL | 50 µg/mL | 12.5 µg/mL | 12.5 µg/mL | 50 µg/mL | 25 µg/mL | 50 µg/mL | 50 µg/mL | – | – | – | – | – | – | – | – | – | –
